The test system of one assay is NF-κB. As to the kind of experiment: NF-kB assay in THP-1-Blue NF-κB cells (SEAP reporter). It is filed as cell-based. As to the method:
THP-1-Blue NF-κB cells (InvivoGen) carrying a stable integrated NF-κB-inducible secreted embryonic alkaline phosphatase (SEAP) reporter construct were plated at a concentration of 1×10^5 cells per well. The cells were stimulated with Pam3CSK4 (1 ng/mL) or hIL1B (Ing/mL). After 10-20 minutes, the cells were then treated with vehicle (DMSO) or serial dilutions of the test compounds (10 doses tested for each test compound, with a 1:10 dilution series starting at 1 μM or 3 μM) with a final volume of 200 μL for 24 hours at 37° C. After 24 hours, the cells were centrifuged and 20 IL supernatant was incubated with 180 μL QUANTI-Blue reagent at 37° C. for 30-60 minutes. The levels of NF-κB-induced was measured in a microplate reader at 620 nm.

The subject of the next assay is MOLM14 D835Y cells. As to the kind of experiment: MOLM14 D835Y cell viability assay (Cell Titer Glo). Type of assay: cell-based. (Cellular ATP, detected with luciferase, serves as a proxy for viable cell number.)
The target of the next assay is T1, IRAK4 (Homo sapiens, UniProt Q9NWZ3).
T1 sequence (Q9NWZ3 1-460): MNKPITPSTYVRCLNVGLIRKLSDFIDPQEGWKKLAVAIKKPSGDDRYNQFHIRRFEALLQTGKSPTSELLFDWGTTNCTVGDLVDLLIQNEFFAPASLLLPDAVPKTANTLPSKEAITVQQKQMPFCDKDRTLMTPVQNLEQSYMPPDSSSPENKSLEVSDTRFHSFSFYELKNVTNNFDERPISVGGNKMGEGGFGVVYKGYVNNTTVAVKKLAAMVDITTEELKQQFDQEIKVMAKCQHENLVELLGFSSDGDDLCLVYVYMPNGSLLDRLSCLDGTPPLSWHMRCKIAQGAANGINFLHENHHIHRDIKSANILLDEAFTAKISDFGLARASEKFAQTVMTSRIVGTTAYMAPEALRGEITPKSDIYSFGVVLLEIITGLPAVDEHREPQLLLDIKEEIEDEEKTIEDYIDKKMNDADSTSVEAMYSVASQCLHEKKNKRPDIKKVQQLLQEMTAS
In words: RBC HotSpot Kinase Assay, IRAK4. It is filed as biochemical. As to conditions: HotSpot functional assay, isolated kinase enzyme, 33P-ATP. Set-up: purchased RBC (Reaction Biology) HotSpot assay. Put shortly:
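Isolated kinases, possibly truncated or lacking regulatory receptor regions, were preincubated with compound for 20 min at room temp in 20 mM Hepes pH 7.5, 10 mM MgCl2, 1 mM EGTA, 2 mM DTT, 1% DMSO. Reactions were started with ^33P-ATP and run 2 h at room temperature; activity was read by P81 filter binding.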

Where [1] appears, read: THP-1-Blue NF-κB cells stimulated with Pam3CSK4, 24 hours, read-out: NF-κB Pam3SCK4 IC50.
[2] abbreviates: THP-1-Blue NF-κB cells stimulated with hIL1B, 24 hours, read-out: NF-κB IL1B IC50.

Where two headings read alike, the source gives them in different places.

The IC50 is the concentration at which inhibition is half-maximal. Consider `COc1cc2ncc(-c3nc(N[C@H]4CNCC[C@@H]4F)c(F)cc3F)n2nc1C(C)(O)C(F)(F)F` (single isomer, unassigned) [Compound 77a], for which the IC50 in the assay with NF-κB (setting [1]) was 166 nM; in the assay with NF-κB (setting [2]) it was 254 nM; with MOLM14 D835Y cells (48 hours), 8 nM; against IRAK4, 16 nM.
Consider `COc1cc2ncc(-c3nc(N[C@@H]4CCCNC4)c(F)cc3F)n2nc1C(C)(O)C(F)(F)F` (single isomer, unassigned) [Compound 81a], for which the IC50 came to 6 nM with MOLM14 D835Y cells (48 hours) and 59 nM on IRAK4.
In the case of `COc1cc2ncc(-c3nc(N[C@H]4CNCC[C@@H]4F)c(F)cc3F)n2nc1C1CCC1` [Compound 15a, 6-(6-cyclobutyl-7-methoxyimidazo[1,2-b]pyridazin-3-yl)-3,5-difluoro-N-((3S,4S)-4-fluoropiperidin-3-yl)pyridin-2-amine], the IC50 was 108 nM with NF-κB (setting [1]); 136 nM in the assay on NF-κB (setting [2]); 18 nM in the assay with MOLM14 D835Y cells (Homo sapiens, MOLM-14, 48 h); 2 nM against IRAK4.
In the case of `COc1cc2ncc(-c3nc(N[C@H]4CNC[C@@H]4F)c(F)cc3F)n2nc1C1CC2(CCC2)C1` [Compound 12a, 3,5-difluoro-N-((3S,4S)-4-fluoropyrrolidin-3-yl)-6-(7-methoxy-6-(spiro[3.3]heptan-2-yl)imidazo[1,2-b]pyridazin-3-yl)pyridin-2-amine], on IRAK4, the IC50 worked out at 6 nM.
With `COc1cc2ncc(-c3nc(N[C@H]4CNCC[C@@H]4F)c(F)cc3F)n2nc1C12CC(C1)C2` [Compound 67a, 6-(6-(bicyclo[1.1.1]pentan-1-yl)-7-methoxyimidazo[1,2-b]pyridazin-3-yl)-3,5-difluoro-N-((3S,4S)-4-fluoropiperidin-3-yl)pyridin-2-amine], the IC50 turned out to be 284 nM in the assay on NF-κB (setting [1]), 331 nM in the assay on NF-κB (setting [2]) and 3 nM on IRAK4.
`COc1cc2ncc(-c3nc(N[C@H]4CNCC[C@@H]4F)c(F)cc3F)n2nc1C1CC2(CCC2)C1` [Compound 10a, 3,5-difluoro-N-((3S,4S)-4-fluoropiperidin-3-yl)-6-(7-methoxy-6-(spiro[3.3]heptan-2-yl)imidazo[1,2-b]pyridazin-3-yl)pyridin-2-amine] registered an IC50 at IRAK4 of 22 nM.
`COc1cc2ncc(-c3nc(N[C@H]4CNC[C@@H]4F)c(F)cc3F)n2nc1C(C)(O)C(F)(F)F` (single isomer, unassigned) [Compound 80a]: the IC50 in the assay with MOLM14 D835Y cells (48 hours) is 23 nM; against IRAK4 it was 24 nM.

Values taken from patent publication US20250368648A1, “MULTI-CYCLIC IRAK AND FLT3 INHIBITING COMPOUNDS AND USES THEREOF” (CHILDREN'S HOSPITAL MEDICAL CENTER, priority 2022, published 2025).
